Measurements taken from patent US8575376B2, “Steroide anionic compounds, method of their production, usage and pharmaceutical preparation involving them” (Ustav Organicke Chemie A Biochemie Akademie Ved Ceske …, priority 2009, dated 2013).

Columns and labels:
Type in all cases: in vivo, rat
rats [1] = experiment: Prepulse inhibition of the acoustic startle response (sensorimotor gating); details: 1 and 10 mg/kg s.c., compound alone
rats [2] = experiment: Active allothetic place avoidance (AAPA) task, compound applied alone; details: Example 9 1 and 10 mg/kg s.c., dizocilpine 0.1-0.3 mg/kg i.p.
Method: The effect of compound from Example 9 on cognitive behaviors and locomotion was assessed using active allothetic place avoidance (AAPA) task, which requires intact hippocampi and ability of animals to navigate in space using distinct reference frames (spatial navigation and “cognitive coordination”) (Wesierska et al., 2005) and it also allows measuring changes in the accompanying locomotor activity. AAPA task training involves animals trained to move over a slowly rotating uniform circular arena, on which a prohibited sector is defined, entering which is punished by a mild footshock. A shock sector and its position can be determined solely by its relationship to distal orienting cues in the room (Stuchlik et al., 2008).
This task is highly dependent upon hippocampal formation, with unilateral reversible ablation of this structure with TTX leading to avoidance deficit (Cimadevilla et al., 2001). Animals solving this task should walk in a direction opposite to arena rotation; otherwise it would be repeatedly brought to a fixed sector by arena rotation. We conducted 4 acquisition session of AAPA task, during which the sector location was always reinforced and remained stable throughout the training. Each session lasted 20 min.
Control animals obtained saline intraperitoneally (i.p.) whilst experimental groups received subcutaneous (s.c.) injections of the compound from Example 9 at doses 1 mg/kg and 10 mg/kg (dissolved in cyclodextrin). Solution of compound from Example 9 (1 mg/2 ml or 10 mg/2 ml in cyclodextrin) was applied s.c. at a volume 2 ml/kg of body weight (b.w.). Intraperitonal application of dizocilpine (a non-competitive NMDA receptor antagonist; showing significant neuroprotective activity but exerting cognition-disturbing and psychotomimetic effects) was used as a positive control. Dizocilpine was applied at doses 0.1 mg/kg, 0.2 mg/kg and 0.3 mg/kg. It is worth noting that dizocilpine (albeit its experimental neuroprotective activity) is often used to model schizophrenia-like behaviors in […] and it has been repeatedly shown to exert a dose-dependent learning deficit and hyperlocomotion.

rats [3] = experiment: Footshock-induced ultrasonic vocalization (anxiety)
Method: Effect of compound from example 9 application at doses of 0.001 mg/kg, 0.01 mg/kg and 10 mg/kg on ultrasonic vocalization after exposure to stressful situation (foot-shock) as a measure of anxiety. Under conditions of stress and pain, rats are known to emit ultrasonic distress calls at a frequency of about 22 kHz. On the first day, rats were placed into the shock chamber individually and after 30 s of habituation, they received 6 inescapable electric foot-shocks (1 shock/1 minute, 1 mA) of 10 seconds duration. The procedure was repeated 24 hours later, but this time, the animals received only one 10-second shock. Afterwards, the rats were injected i.p. with vehicle (b-cyclodextrine) or the compound from example 9 at doses of 0.001, 0.01, and 10 mg/kg) 30 min prior to testing. During the test session, animals were placed into the shock chamber for 10 minutes and their ultrasonic vocalization was recorded. […] Each animal was recorded separately with a Mini-3 Bat Detector (Ultra Sound Advice, London, UK). Ultrasonic vocalizations at 22-kHz consisting of calls with a minimal duration of 300 ms were recorded and analyzed by UltraVox 2.0 program (Noldus, Wageningen, The Netherlands). The total number of vocalization events and their total duration were recorded.

rats [4] = experiment: Open-field locomotion in MK-801 animal model of schizophrenia
Method: The effect of the compound from example 9 in doses of 0.1 mg/kg and 1 mg/kg on locomotor activity in open field test was evaluated. Locomotor activity expressed as a total distance travelled during 30 min exploration of a box (68×68×30 cm) located in a sound proof room was measured using a video tracking system for automation of the behavioural experiments (Noldus, EthoVision, Version 2.1.).

rats [5] = experiment: Forced swim test; details: 1 mg/kg i.p., 60 min prior, p<0.001
Method: Forced swim test is an experimental model of depression and excessive stress used in laboratory rodents. Rats were randomly assigned to two groups of seven animals each. Control group received an injection of cyclodextrine (i.p.) 60 min. prior to experiment, while experimental group was injected i.p. with the compound from example 9 in a dose of 1 mg/kg 60 minutes prior to the experiment. Rats were forced to swim by being individually placed into a bucket (30 cm diameter, 28 cm height) containing water (25° C.). Immobility (floating) in the water is interpreted as a state of despair when the animals realize that an escape is impossible. Immobility was defined as floating (as opposed to active swimming) with minimal effort required for keeping the head above water. All animals received a single 30-minute trial and their behaviour was monitored by an experimenter. The trial was divided into six 5-minute intervals and floating of at least 30 second duration within each interval was recorded by the experimenter.

Wistar rats = experiment: Thermal nociception, plantar test (limb and tail withdrawal latency)
Method: The effect of the compound from example 9 was assessed on acute nociception in rat. Pain was evaluated by measurement of paw/tail withdrawal latencies. Male Wistar rats (Velaz, Czech Republic) were used. Animals were kept at 22° C. (relative humidity was 40-70%) under a 12-hour light/12-hour dark cycle. All experiments were approved by the Committee for Animal Care and conducted in accordance with the ethical guidelines of the International Association for the Study of Pain. The animals were randomly divided into experimental and testing groups groups. The compound from example 9 was dissolved in β-cyclodextrine (the concentration 1.0 mg/ml and 10 mg/kg injected intraperitoneally or β-cyclodextrine injected intraperitoneally in same volume).
Thermal nociception was determined using plantar test equipment (Ugo Basile, Italy). The latency (in seconds) of forelimb, hindlimb or tail withdrawals to the noxious thermal stimulation was measured. Each animal was placed individually in a clear plastic box with a clear glass floor, and was allowed to acclimatize for 10 min; the temperature and humidity in the testing room were kept in the same range as those in the housing rooms. The latencies were measured 3 times per session, separated by a minimum interval of 5 min, and the mean value was used for further analysis. Infrared intensity was set to 40% and the maximum cutoff value was set at 22 seconds to avoid thermal injury. The testing box was cleaned after each session.

**Q.** For `CC(=O)[C@H]1CC[C@H]2[C@@H]3CC[C@@H]4C[C@H](OC(=O)[C@@H](N)CCC(=O)O)CC[C@]4(C)[C@H]3CC[C@]12C` [Example 9, 20-Oxo-5β-pregnan-3α-yl L-glutamyl 1-ester], which “prepulse inhibition of the startle response” value (rats [1]) is on record?
**A.** Its value is “none of the doses of the compound from Example 9 significantly altered this parameter”.

**Q.** And the “maximum time avoided in AAPA” value (rats [2])?
**A.** Its value is “did not significantly impaired cognitive performance compared to control animals”.

**Q.** And the “number of entrances into shock sector in AAPA” value (rats [2])?
**A.** Its value is “neither of doses of compound from Example 9 caused worsening in this parameter”.

**Q.** What about the “total distance traveled in AAPA (locomotor activity)” value (rats [2]; 20-min sessions) of the same compound?
**A.** The value was “failed to exhibit either decrease or increase in total distance compared to controls”.

**Q.** And the “anxiolytic effect, ultrasonic vocalization” value (rats [3]; 0.001, 0.01 and 10 mg/kg i.p., 30 min prior to testing)?
**A.** The value was “slight dose-dependent anxiolytic effect”.

**Q.** And the “total duration of ultrasonic vocalizations” value (rats [3]; 10 mg/kg i.p.)?
**A.** The value was “Significant difference”.

**Q.** And the “hyperlocomotion induced by MK-801 in open field” value (rats [4]; Example 9 0.1 or 1 mg/kg + MK-801 0.1 mg/kg)?
**A.** The value was “has not effect on hyperlocomotion state induced by MK-801”.

**Q.** What about the “locomotion in open field (total distance, 30 min)” value (rats [4]; substance alone, Example 9 0.1 and 1 mg/kg, MK-801 0.1 mg/kg) of the same compound?
**A.** The value was “did not produce locomotor alterations in the open-field test”.

**Q.** What about the “time spent floating / time to immobility in forced swim test” value (rats [5]) of the same compound?
**A.** The value was “spent significantly less time by floating, in comparison to controls”.

**Q.** What about the “limb withdrawal latency to thermal stimulus” value (Wistar rats; 1 mg/kg i.p.) of the same compound?
**A.** The value was “Such an effect was not however observed”.

**Q.** And the “tail withdrawal reaction to thermal stimulus” value (Wistar rats; 10 mg/kg i.p.)?
**A.** Its value is “suppressed reactivity to painful stimuli”.

**Q.** And the “limb withdrawal latency to thermal stimulus” value (Wistar rats; 10 mg/kg i.p., p<0.001)?
**A.** Its value is “significantly prolonged interval of resistance to a painful stimulus”.

**Q.** What about the “tail withdrawal reaction to thermal stimulus” value (Wistar rats; lower dose (1 mg/kg i.p.)) of the same compound?
**A.** Its value is “did not yield such an effect”.
